From ChEMBL document CHEMBL4715863, “Chemistry and Biology of Natural Azoxy Compounds” (J Nat Prod, 2020)
Values after ≈ are worked out from the molar mass of the structure shown.

Assays:
KB = experiment: Cytotoxicity against human KB cells; assay type: functional, cell-based
Escherichia coli = experiment: Antibacterial activity against Escherichia coli BE1121 by paper disc-agar diffusion method; assay type: functional

Row | MIC (Escherichia coli) [µg/mL] | SMILES | IC50 (KB) [µM]
1 |  | [O-]/[N+](CCCCCCCCCC/C=C\CCc1cccnc1)=N\CCCCCCCCCC/C=C\CCc1cccnc1 | 1.7
2 | 0.078 (≈ 0.453 µM) | C=C(/N=[N+](\[O-])CC(C)C)C(=O)O | 
